How the values were obtained:
hERG channel = molecular target: T1, hERG channel (Homo sapiens, UniProt Q12809); test: hERG channel inhibition assay (patch-clamp, CHOhERG cells); type: cell-based; details: safety ratio;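 as to hERG IC20/TLR7 IC50: ratio above 30 indicates an adequate safety window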;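 as to hERG IC20/TLR8 IC50: ratio above 30 indicates an adequate safety window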
T1 construct: expressed in transfected cells; host or cells: CHO (Chinese hamster ovary), CHOhERG
Method: hERG channel inhibition assay:
The hERG K^+ channels were cloned in humans and stably expressed in a CHO (Chinese hamster ovary) cell line. CHOhERG cells were used for patch-clamp (voltage-clamp, whole-cell) experiments. Cells were stimulated by a voltage pattern to activate hERG channels and conduct IKhERG currents (rapid delayed outward rectifier potassium current of the hERG channel). After the cells were stabilized for a few minutes, the amplitude and kinetics of IKhERG were recorded at a stimulation frequency of 0.1 Hz (6 bpm). Thereafter, the test compound was added to the preparation at increasing concentrations. For each concentration, an attempt was made to reach a steady-state effect, usually, this was achieved within 3-10 min at which time the next highest concentration was applied. The amplitude and kinetics of IKhERG are recorded in each concentration of the drug which were compared to the control values (taken as 100%). (references: Redfern W S, Carlsson L, Davis A S, Lynch W G, MacKenzie I, Palethorpe S, Siegl P K, Strang I, Sullivan A T, Wallis R, Camm A J, Hammond T G. 2003; Relationships between preclinical cardiac electrophysiology, clinical QT interval prolongation and torsade de pointes for a broad range of drugs: evidence for a provisional safety margin in drug development. Cardiovasc. Res. 58:32-45, Sanguinetti M C, Tristani-Firouzi M. 2006; hERG potassium channels and cardiac arrhythmia. Nature 440:463-469, Webster R, Leishman D, Walker D. 2002; Towards a drug concentration effect relationship for QT prolongation and torsades de pointes. Curr. Opin. Drug Discov. Devel. 5:116-26).

hTLR9 = molecular target: T2, hTLR9 (Homo sapiens, UniProt Q9NR96); parameters: host or cells: HEK; details: disclosed in US20150105370; read-out: HEK/hTLR9 IC50; cited from earlier work
T2 sequence (Q9NR96 26-1032): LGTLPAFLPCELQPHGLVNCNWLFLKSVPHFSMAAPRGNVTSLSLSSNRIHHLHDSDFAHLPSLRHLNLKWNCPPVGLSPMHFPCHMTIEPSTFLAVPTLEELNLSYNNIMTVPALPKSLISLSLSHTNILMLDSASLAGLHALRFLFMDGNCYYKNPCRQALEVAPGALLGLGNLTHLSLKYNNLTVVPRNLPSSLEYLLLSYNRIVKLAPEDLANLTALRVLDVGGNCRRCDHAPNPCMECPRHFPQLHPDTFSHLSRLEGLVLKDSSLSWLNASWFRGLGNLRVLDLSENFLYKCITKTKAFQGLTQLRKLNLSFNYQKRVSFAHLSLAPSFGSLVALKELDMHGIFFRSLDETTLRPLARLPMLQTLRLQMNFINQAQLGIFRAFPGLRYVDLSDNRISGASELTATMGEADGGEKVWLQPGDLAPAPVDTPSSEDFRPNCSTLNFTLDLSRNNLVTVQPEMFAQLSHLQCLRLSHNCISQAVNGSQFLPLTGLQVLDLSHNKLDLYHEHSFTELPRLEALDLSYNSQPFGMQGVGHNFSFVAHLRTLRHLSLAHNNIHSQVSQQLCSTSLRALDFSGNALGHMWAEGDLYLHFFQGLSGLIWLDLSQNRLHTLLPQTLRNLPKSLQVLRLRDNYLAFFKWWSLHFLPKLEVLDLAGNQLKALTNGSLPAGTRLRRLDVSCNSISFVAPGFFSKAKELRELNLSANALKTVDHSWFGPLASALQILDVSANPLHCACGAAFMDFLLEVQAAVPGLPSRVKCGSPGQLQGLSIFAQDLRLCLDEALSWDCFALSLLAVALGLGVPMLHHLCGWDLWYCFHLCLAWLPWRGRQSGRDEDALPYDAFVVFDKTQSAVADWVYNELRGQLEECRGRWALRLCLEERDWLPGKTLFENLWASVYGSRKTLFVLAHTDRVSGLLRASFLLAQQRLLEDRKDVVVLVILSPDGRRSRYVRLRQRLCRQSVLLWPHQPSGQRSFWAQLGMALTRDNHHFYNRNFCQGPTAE

[1] = Human microsome stability assay; type: in vitro ADME; details: 1 μM test compound, 0.5 mg/mL liver microsomal protein, 37° C.
Method: Human microsome stability assay
The human microsomal stability assay is used for early assessment of metabolic stability of a test compound in human liver microsomes.
Human liver microsomes (Cat.NO.: 452117, Corning, USA;Cat.NO.:H2610, Xenotech, USA) were preincubated with test compound for 10 minutes at 37° C. in 100 mM potassium phosphate buffer, pH 7.4. The reactions were initiated by adding NADPH regenerating system. The final incubation mixtures contained 1 μM test compound, 0.5 mg/mL liver microsomal protein, 1 mM MgCl2, 1 mM NADP, 1 unit/mL isocitric dehydrogenase and 6 mM isocitric acid in 100 mM potassium phosphate buffer, pH 7.4. After incubation times of 0, 3, 6, 9, 15 and 30 minutes at 37° C., 300 μL of cold acetonitrile (including internal standard) was added to 100 μL incubation mixture to terminate the reaction. Following precipitation and centrifugation, the amount of compound remaining in the samples were determined by LC-MS/MS. Controls of no NADPH regenerating system at zero and 30 minutes were also prepared and analyzed.

CYP2D6 = molecular target: T3, CYP2D6 (Homo sapiens, UniProt P10635); test: CYP inhibition assay in human liver microsome; type: in vitro ADME; details: human liver microsomes, probe dextromethorphan, dextromethorphan substrate, percentage inhibition <0: not or weak inhibitor, read-out: CYP 2D6 inhibition %@10 μM
T3 construct: tissue BD-Gentest 452117; host or cells: human liver microsomes
T3 sequence (P10635 whole entry): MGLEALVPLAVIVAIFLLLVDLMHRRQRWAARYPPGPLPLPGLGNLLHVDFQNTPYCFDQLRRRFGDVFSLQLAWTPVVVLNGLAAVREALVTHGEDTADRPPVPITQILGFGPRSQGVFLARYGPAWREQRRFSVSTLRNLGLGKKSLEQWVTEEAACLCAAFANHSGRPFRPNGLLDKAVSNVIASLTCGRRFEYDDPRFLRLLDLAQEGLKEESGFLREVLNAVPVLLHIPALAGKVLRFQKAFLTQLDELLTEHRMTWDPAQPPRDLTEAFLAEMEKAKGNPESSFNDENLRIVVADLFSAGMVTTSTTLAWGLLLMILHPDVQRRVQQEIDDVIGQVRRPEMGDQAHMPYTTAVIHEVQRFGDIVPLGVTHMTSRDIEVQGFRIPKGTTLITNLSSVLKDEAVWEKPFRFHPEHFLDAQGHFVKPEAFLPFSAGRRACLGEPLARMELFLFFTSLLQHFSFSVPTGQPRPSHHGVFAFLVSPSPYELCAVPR
Method: The compounds would be desirable to have minimal DDI liabilities. Therefore, the effects of compounds of formula (I) or (Ia) on CYP2D6 are determined.
This is a high throughput screening assay used for assessment of reversible inhibition of CYP2D6 activity of test compounds in human liver microsome (HLM) in early discovery stage.
10 mM DMSO stock solutions of test compounds were diluted in DMSO to generate 2 mM intermediate stock solution. 250 nL of intermediate stock solution were transferred in duplicate into 3 separate 384 well microtitre plates (assay-ready plates). A mixture of HLM and each substrate was made up. 45 μL of HLM substrate mix was then transferred to each well of an assay ready plate and mixed. The negative (solvent) and positive control (standard inhibitor for CYP 2D6) were included in each assay ready plate. The assay ready plate was warmed to 37° C. in an incubator over 10 minutes. 5 μL pre-warmed NADPH regenerating system was added to each incubation well to start the reaction. Final incubation volume was 50 μL. The assay plate then was placed back in the 37° C. incubator. After 10 minutes incubation, incubates were quenched by addition of 50 μL 100% acetonitrile containing internal standards (20 ng/mL D3-Dextrorphan). The supernatants were collected for RapidFire/MS/MS analysis.
RapidFire online solid phase extraction/sample injection system (Agilent) coupled with API4000 triple quadrupole mass spectrometer (AB Sciex) were used for sample analysis. The mobile phase composed of acetonitrile and water supplemented with 0.1% formic acid. A C4 solid phase extraction cartridge is used for sample separation. MS detection is achieved in positive ion MRM mode.
Data analysis Peak areas for substrate, metabolite and internal standard are determined using the RapidFire integrator software (version 3.6.12009.12296). Peak area ratios (PAR) of metabolite and internal standard (stable-labelled metabolite) are then calculated. The measurement window for each experiment is then defined:
PAR (0% activity), average PAR for all incubations containing concentrated inhibitor; Par (100% activity), average PAR for all incubations containing no inhibitor (DMSO controls);
% Activity (test inhibitor)=
=[PAR(test inhibitor)-PAR(0% activity)]/[PAR(100% activity)-PAR(0% activity)];
% Inhibition (test inhibitor)=100-% Activity (test inhibitor).

T1 sequence (Q12809 whole entry): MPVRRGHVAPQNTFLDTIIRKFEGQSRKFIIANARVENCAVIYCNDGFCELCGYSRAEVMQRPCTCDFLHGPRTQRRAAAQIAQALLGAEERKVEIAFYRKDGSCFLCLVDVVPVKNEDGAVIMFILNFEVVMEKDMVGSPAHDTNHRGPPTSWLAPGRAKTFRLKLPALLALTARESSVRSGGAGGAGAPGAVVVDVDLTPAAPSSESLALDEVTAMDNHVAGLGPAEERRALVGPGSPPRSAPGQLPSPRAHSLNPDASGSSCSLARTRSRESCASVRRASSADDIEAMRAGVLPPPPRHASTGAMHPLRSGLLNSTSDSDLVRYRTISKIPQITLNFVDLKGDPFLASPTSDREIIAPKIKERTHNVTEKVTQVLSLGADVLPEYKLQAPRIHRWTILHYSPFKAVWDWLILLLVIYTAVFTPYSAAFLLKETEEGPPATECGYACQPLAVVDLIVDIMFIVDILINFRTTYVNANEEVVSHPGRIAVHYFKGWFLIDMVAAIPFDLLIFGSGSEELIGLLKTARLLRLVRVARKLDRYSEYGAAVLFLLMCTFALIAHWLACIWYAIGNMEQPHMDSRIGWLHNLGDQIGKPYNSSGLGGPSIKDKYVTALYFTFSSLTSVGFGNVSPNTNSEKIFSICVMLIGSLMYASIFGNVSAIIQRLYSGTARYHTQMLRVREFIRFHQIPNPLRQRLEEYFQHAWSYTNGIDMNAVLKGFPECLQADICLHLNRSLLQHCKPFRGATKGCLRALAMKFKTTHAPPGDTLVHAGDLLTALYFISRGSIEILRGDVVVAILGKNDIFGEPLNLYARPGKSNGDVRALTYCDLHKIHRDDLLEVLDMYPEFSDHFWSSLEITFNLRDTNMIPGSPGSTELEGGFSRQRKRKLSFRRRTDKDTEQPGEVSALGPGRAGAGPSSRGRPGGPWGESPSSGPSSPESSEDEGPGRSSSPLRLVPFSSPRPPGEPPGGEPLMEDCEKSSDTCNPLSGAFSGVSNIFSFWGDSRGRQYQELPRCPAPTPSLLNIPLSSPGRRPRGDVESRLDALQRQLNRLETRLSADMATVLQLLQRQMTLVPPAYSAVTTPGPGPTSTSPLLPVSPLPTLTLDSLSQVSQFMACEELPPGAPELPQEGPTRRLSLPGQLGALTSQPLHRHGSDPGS

Compound	hERG IC20/TLR7 IC50 (hERG channel)	hERG IC20/TLR9 IC50 (hERG channel)	IC50 (hTLR9) [µM]	Clearance of Human microsome [1] [mL/min/kg]	also measured
C[C@@H]1CN(c2ccc(C#N)c3ncccc23)C[C@H](CN2CCN(c3ccccc3)CC2)O1 [ER-887258, reference compound]	8.1	0.3	> 2	–	–
C[C@@H]1CN(c2ccc(C#N)c3ncccc23)C[C@H](CN2CCN(c3ccccn3)CC2)O1 [ER-888285, reference compound]	8.4	0.5	> 2	–	–
C[C@@H]1CN(c2ccc(C#N)c3ncccc23)C[C@H](CN2CCN(c3ccncc3)CC2)O1 [ER-888286, reference compound]	0.3	0.2	> 2	–	–
C[C@@H]1CN(c2ccc(C#N)c3ncccc23)C[C@H](CN2CC(NS(=O)(=O)c3ccc(F)cc3)C2)O1 [ER-894155]	–	–	> 10	–	–
Cc1nn(C)cc1S(=O)(=O)NC1CCN(C[C@H]2CN(c3ccc(C#N)c4ncccc34)C[C@@H](C)O2)CC1 [ER-894160]	–	–	> 10	–	–
C[C@@H]1CN(c2ccc(C#N)c3ncccc23)C[C@H](CN2CC[C@@H](NC(=O)c3ccccc3)C2)O1 [ER-894544]	–	–	> 6.2	–	–
Cc1cc(N2CC[C@H](NC[C@H]3CN(c4ccc(C#N)c5ncccc45)C[C@@H](C)O3)[C@@H](O)C2)cc(CO)n1 [Example 26]	–	–	–	7.72	–
Cc1cc(N2CC[C@@H](O)[C@H](NC[C@H]3CN(c4ccc(C#N)c5ncccc45)C[C@@H](C)O3)C2)cc(CO)n1 [Example 27]	–	–	–	7.67	–
Cc1cc(N2C[C@@H](O)[C@H](NC[C@H]3CN(c4ccc(C#N)c5ncccc45)C[C@@H](C)O3)C2)cc(CO)n1 [Example 31]	–	–	–	7.61	–
Cc1cc(N2CCN(C[C@H]3CN(c4ccc(C#N)n5nccc45)C[C@@H](C)O3)C(Cc3ccccc3)C2)cc(C)n1 (some centres unmarked) [Example 39]	–	–	–	–	inhibition at 10 min, 10 μM (CYP2D6): 7.5%
COc1ccc(N2CCN(C[C@H]3CN(c4ccc(C#N)c5ncccc45)C[C@@H](C)O3)CC2)cc1 [Example R1, 5-[(2S,6R)-2-[[4-(4-methoxyphenyl)piperazin-1-yl]methyl]-6-methyl-morpholin-4-yl]quinoline-8-carbonitrile, reference compound]	9.3	0.1	–	10.84	hERG IC20/TLR8 IC50 (hERG channel): 6.2
C[C@@H]1CN(c2ccc(C#N)c3ncccc23)C[C@H](CN2CCN(c3ccc(Cl)cc3)CC2)O1 [Example R2, 5-[(2S,6R)-2-[[4-(4-chlorophenyl)piperazin-1-yl]methyl]-6-methyl-morpholin-4-yl]quinoline-8-carbonitrile, reference compound]	1.3	0.0	–	–	hERG IC20/TLR8 IC50 (hERG channel): 0.8

Source: patent publication US20210269451A1, “PYRIDINYL HETEROCYCLYL COMPOUNDS FOR THE TREATMENT OF AUTOIMMUNE DISEASE” (Hoffmann-La Roche Inc., priority 2018, published 2021)
